Test results from article PMC10830309, “Inhibition of Pancreatic Lipase by Flavonoid Derivatives: In Vitro and In Silico Investigations” (Advances in Pharmacological and Pharmaceutical Sciences, 2024).
Like-named read-outs stand apart in the source and are kept apart here.

Columns and labels:
[1] = biological target: T1, Porcine pancreatic lipase, type II (Sus scrofa, UniProt P00591); experiment: Pancreatic lipase inhibition assay (spectrophotometric, p-NPP substrate); type: biochemical
T1 construct: purchased Merck Millipore / Sigma-Aldrich L-3126
T1 sequence (P00591 1-450): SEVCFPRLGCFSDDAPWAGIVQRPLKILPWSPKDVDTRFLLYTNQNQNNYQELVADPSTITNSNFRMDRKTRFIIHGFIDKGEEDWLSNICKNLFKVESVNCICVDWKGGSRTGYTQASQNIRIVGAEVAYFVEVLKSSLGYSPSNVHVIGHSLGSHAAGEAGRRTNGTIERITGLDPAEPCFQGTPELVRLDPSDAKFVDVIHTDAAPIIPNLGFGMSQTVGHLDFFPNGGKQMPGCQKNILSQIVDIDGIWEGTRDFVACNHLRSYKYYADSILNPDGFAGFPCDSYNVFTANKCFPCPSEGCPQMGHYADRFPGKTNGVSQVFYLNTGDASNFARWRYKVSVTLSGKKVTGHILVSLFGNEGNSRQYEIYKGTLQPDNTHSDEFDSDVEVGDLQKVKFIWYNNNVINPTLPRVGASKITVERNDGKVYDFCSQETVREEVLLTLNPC
Protocol: Following the experimental conditions described in the previous study [28], the assay was performed as follows: each sample solution, composed of 50 mM Tris-HCl buffer at pH 8.0, tested compound, and 10 mg/ml pancreatic lipase enzyme, was sequentially added. The resulting mixture was thoroughly mixed and incubated for 10 minutes at 37°C. Subsequently, the p-NPP substrate solution was added and mixed well. The mixture was then further incubated for 7 minutes at 37°C. The absorbance of the solution was measured at 405 nm. For the control solution, the same procedure was followed, replacing the tested compound with 10% DMSO. The blank solution was prepared with no enzyme added.
The percentage of pancreatic lipase inhibition (I%) was calculated using the following equation:(1) I%=∆A0−∆A/A0×100.
Here, ∆A0 represents the absorbance difference between the control and the blank, ∆A represents the absorbance difference between the sample and the blank, and A0 represents the absorbance of the control.
A linear regression equation was constructed to establish the correlation between the logarithm of the concentration (µM) of the tested substances and the percentage of pancreatic lipase inhibition. From this equation, the IC50 value, which indicates the concentration of the compound required for 50% inhibition, was determined.

[2] = biological target: T1, Porcine pancreatic lipase, type II; experiment: Enzymatic inhibition kinetic analysis (Michealis–Menten and Lineweaver–Burk plots); type: biochemical; conditions: for Mode of enzyme inhibition: Michealis–Menten and Lineweaver–Burk plots; for Vmax in the presence of inhibitor: p-NPP 12.5-200 μM, from Michealis–Menten plots
Protocol: Ten semisynthetic flavonoid derivatives, 2 flavanones and 8 flavones (Figure 1), reported in the previous works were used in this study.
The substrate p-NPP was examined at five distinct concentrations ranging from 12.5 μM to 200 μM. The flavonoid derivative was assessed for its lipase inhibition capacity over time at concentrations of 15 μM and 30 μM. Simultaneously, a negative control sample without the inhibitor was utilized for comparison. […] Inhibition constants (Ki) and maximum velocity (Vmax) were derived from the Michealis–Menten plots, and the mode of enzyme inhibition was elucidated through the Lineweaver–Burk plots. All parameters and graphical representations were calculated and generated using GraphPad Prism 8.4.3 software.

[3] = design: method as in PMID 11261530; conditions: dietary contexts, clinical use; cited from earlier work
[4] = p-NPP substrate, 50 mM Tris-HCl pH 8.0, 37°C, absorbance 405 nm, read-out: IC50 for pancreatic lipase

SMILES	IC50 [1, 4] [µM]	IC50 [1] [µM]	also measured
COc1cc(O)c2c(c1)OC(c1ccc(O)cc1)CC2=O (stereo not shown) [F01, 5-hydroxy-2-(4-hydroxyphenyl)-7-methoxychroman-4-one]	17.7 ± 1.43		Mode of enzyme inhibition [2]: competitive; Vmax in the presence of inhibitor [2]: 0.03272 ΔA·min^−1; Ki ([2]; read-out: Inhibition constant (Ki)): 7.16 µM
COc1ccc(C2CC(=O)c3c(O)cc(OC)cc3O2)cc1 (stereo not shown) [F02]	76.2 ± 3.22		
COc1cc2oc(-c3ccccc3)cc(=O)c2c(O)c1OC [F03]	> 500		
CCOc1cc2oc(-c3ccccc3)cc(=O)c2c(O)c1OCC [F04]		> 500	
C=CCOc1cc2oc(-c3ccccc3)cc(=O)c2c(O)c1OCC=C [F05]		341 ± 24.1	
CC(=O)Oc1cc2oc(-c3ccccc3)cc(=O)c2c(OC(C)=O)c1OC(C)=O [F06]		> 500	
CCC(=O)Oc1cc2oc(-c3ccccc3)cc(=O)c2c(OC(=O)CC)c1OC(=O)CC [F07]		> 500	
COc1cc(OC)c2c(=O)cc(-c3ccc(OC)c(OC)c3)oc2c1 [F08]		270 ± 14.6	
COc1cc(O)c2c(=O)cc(-c3ccc(OC)c(OC)c3)oc2c1 [F09]	465 ± 11.8		
CCOc1cc(O)c2c(=O)cc(-c3ccc(OC)c(OCC)c3)oc2c1 [F10]		> 500	
CCCCCCCCCCC[C@@H](C[C@@H]1OC(=O)[C@H]1CCCCCC)OC(=O)[C@H](CC(C)C)NC=O [Orlistat, reference compound]			Mode of enzyme inhibition [2]: competitive; Vmax in the presence of inhibitor [2]: 0.03295 ΔA·min^−1; Reduction of fat absorption [3]: approximately 30%
